According to US9931327B2, “Derivatives of 1-phenyl-2-pyridinyl alkyl alcohols as phosphodiesterase inhibitors” (Chiesi Farmaceutici S.p.A., priority 2011, dated 2018):
Structures can show the parent of a compound that is named as a salt. Where two headings read alike, the source gives them in different places.

Test system: LPS-induced TNF-α release in peripheral blood mononuclear cells (PBMCs)
Experiment: In vitro determination of PDE4 inhibitory activity in the PBMCs assay (LPS-induced TNF-α release)
Assay type: cell-based, human
Settings: PBMC, human PBMCs, LPS 3 ng/ml, 18 hours, read-out: PDE4 inhibition (IC50, 50% inhibition of LPS-induced TNF-α release)
How it was run: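 Cryopreserved human PBMCs (10^5 cells/well) pre-incubated 30 min with compound (10^−12 to 10^−6 M or 10^−3 to 10^−7 M), then stimulated with LPS 3 ng/ml for 18 h at 37 °C. TNF-α in medium by ELISA; IC50 as mean ± 95% confidence limits.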

Compound | IC50 (TNF-α by ELISA) [nM] | IC50 (compounds of formula (II)) [nM]
Cc1nc(C)c(S(=O)(=O)N2CCS[C@H]2C(=O)O[C@@H](Cc2c(Cl)c[n+]([O-])cc2Cl)c2ccc(OC(F)F)c(OCC3CC3)c2)s1 [Compound 107, 3,5-dichloro-4-((S)-2-(3-(cyclopropylmethoxy)-4-(difluoromethoxy)phenyl)-2-((S)-3-(2,4-dimethylthiazol-5-ylsulfonyl)thiazolidine-2-carbonyloxy)ethyl)pyridine 1-oxide] | < 0.1 | –
CN(C)S(=O)(=O)c1cccc(S(=O)(=O)N2CCS[C@H]2C(=O)O[C@@H](Cc2c(Cl)c[n+]([O-])cc2Cl)c2ccc(OC(F)F)c(OCC3CC3)c2)c1 [Compound 97, 3,5-dichloro-4-((S)-2-(3-(cyclopropylmethoxy)-4-(difluoromethoxy)phenyl)-2-((S)-3-(3-(N,N-dimethylsulfamoyl)phenylsulfonyl)thiazolidine-2-carbonyloxy)ethyl)pyridine 1-oxide] | < 0.1 | –
O=C(O[C@@H](Cc1c(Cl)c[n+]([O-])cc1Cl)c1ccc(OC(F)F)c(OCC2CC2)c1)[C@@H]1SCCN1S(=O)(=O)c1cccnc1 [Compound 88, 3,5-dichloro-4-((S)-2-(3-(cyclopropylmethoxy)-4-(difluoromethoxy)phenyl)-2-((S)-3-(pyridin-3-ylsulfonyl)thiazolidine-2-carbonyloxy)ethyl)pyridine 1-oxide] | < 0.1 | –
Nc1ccc(S(=O)(=O)N2CCC[C@H]2C(=O)O[C@@H](Cc2c(Cl)c[n+]([O-])cc2Cl)c2ccc(OC(F)F)c(OCC3CC3)c2)cc1 [Compound 136, 4-((S)-2-((S)-1-(4-aminophenylsulfonyl)pyrrolidine-2-carbonyloxy)-2-(3-(cyclopropylmethoxy)-4-(difluoromethoxy)phenyl)ethyl)-3,5-dichloropyridine 1-oxide] | 0.1 to 1 | –
CN(C)C(=O)c1cccc(S(=O)(=O)N2CCC[C@@H]2C(=O)O[C@@H](Cc2c(Cl)c[n+]([O-])cc2Cl)c2ccc(OC(F)F)c(OCC3CC3)c2)c1 [Compound 55, 3,5-dichloro-4-((S)-2-(3-(cyclopropylmethoxy)-4-(difluoromethoxy)phenyl)-2-((R)-1-(3-(dimethylcarbamoyl)phenylsulfonyl)pyrrolidine-2-carbonyloxy)ethyl)pyridine 1-oxide] | 0.1 to 1 | –
COc1ccc(S(=O)(=O)N2CCS[C@H]2C(=O)O[C@@H](Cc2c(Cl)c[n+]([O-])cc2Cl)c2ccc(OC(F)F)c(OCC3CC3)c2)cc1 [Compound 110, 3,5-dichloro-4-((S)-2-(3-(cyclopropylmethoxy)-4-(difluoromethoxy)phenyl)-2-((S)-3-(4-methoxyphenylsulfonyl)thiazolidine-2-carbonyloxy)ethyl)pyridine 1-oxide] | 0.1 to 1 | –
COc1ccc(OC)c(S(=O)(=O)N2CCS[C@H]2C(=O)O[C@@H](Cc2c(Cl)c[n+]([O-])cc2Cl)c2ccc(OC(F)F)c(OCC3CC3)c2)c1 [Compound 115, 3,5-dichloro-4-((S)-2-(3-(cyclopropylmethoxy)-4-(difluoromethoxy)phenyl)-2-((S)-3-(2,5-dimethoxyphenylsulfonyl)thiazolidine-2-carbonyloxy)ethyl)pyridine 1-oxide] | < 0.1 | –
COC(=O)c1ccc(S(=O)(=O)N2CCS[C@H]2C(=O)O[C@@H](Cc2c(Cl)c[n+]([O-])cc2Cl)c2ccc(OC(F)F)c(OCC3CC3)c2)cc1 [Compound 100, 3,5-dichloro-4-((S)-2-(3-(cyclopropylmethoxy)-4-(difluoromethoxy)phenyl)-2-((S)-3-(4-(methoxycarbonyl)phenylsulfonyl)thiazolidine-2-carbonyloxy)ethyl)pyridine 1-oxide] | 1 to 10 | –
CN(C)C(=O)c1cccc(S(=O)(=O)N2CCC[C@H]2C(=O)O[C@@H](Cc2c(Cl)c[n+]([O-])cc2Cl)c2ccc(OC(F)F)c(OCC3CC3)c2)c1 [Compound 54, 3,5-dichloro-4-((S)-2-(3-(cyclopropylmethoxy)-4-(difluoromethoxy)phenyl)-2-((S)-1-(3-(dimethylcarbamoyl)phenylsulfonyl)pyrrolidine-2-carbonyloxy)ethyl)pyridine 1-oxide] | < 0.1 | –
O=C(O[C@@H](Cc1c(Cl)c[n+]([O-])cc1Cl)c1ccc(OC(F)F)c(OCC2CC2)c1)C1SCCN1S(=O)(=O)C1CCCCC1 (stereo partly drawn) [Compound 71, 3,5-dichloro-4-((2S)-2-(3-(cyclohexylsulfonyl)thiazolidine-2-carbonyloxy)-2-(3-(cyclopropylmethoxy)-4-(difluoromethoxy)phenyl)ethyl)pyridine 1-oxide] | 1 to 10 | –
O=C(O[C@@H](Cc1c(Cl)c[n+]([O-])cc1Cl)c1ccc(OC(F)F)c(OCC2CC2)c1)C1SCCN1S(=O)(=O)c1ccc(F)cc1F (stereo partly drawn) [Compound 67, 3,5-dichloro-4-((2S)-2-(3-(cyclopropylmethoxy)-4-(difluoromethoxy)phenyl)-2-(3-(2,4-difluorophenylsulfonyl)thiazolidine-2-carbonyloxy)ethyl)pyridine 1-oxide] | 0.1 to 1 | –
CN(C)S(=O)(=O)c1cccc(S(=O)(=O)N2CCCC2C(=O)O[C@@H](Cc2c(Cl)c[n+]([O-])cc2Cl)c2ccc(OC(F)F)c(OCC3CC3)c2)c1 (stereo in doubt) [Compound 238, 3,5-dichloro-4-((S)-2-(3-(cyclopropylmethoxy)-4-(difluoromethoxy)phenyl)-2-((S)-1-(3-(N,N-dimethylsulfamoyl)phenylsulfonyl)pyrrolidine-2-carbonyloxy)ethyl)pyridine 1-oxide] | 0.1 to 1 | –
CS(=O)(=O)Nc1ccc(S(=O)(=O)N2CCSC2C(=O)O[C@@H](Cc2c(Cl)c[n+]([O-])cc2Cl)c2ccc(OC(F)F)c(OCC3CC3)c2)cc1 (stereo partly drawn) [Compound 142, 3,5-dichloro-4-((2S)-2-(3-(cyclopropylmethoxy)-4-(difluoromethoxy)phenyl)-2-(3-(4-(methylsulfonamido)phenylsulfonyl)thiazolidine-2-carbonyloxy)ethyl)pyridine 1-oxide] | 0.1 to 1 | –
O=C(O[C@@H](Cc1c(Cl)c[n+]([O-])cc1Cl)c1ccc(OC(F)F)c(OCC2CC2)c1)[C@@H]1SCCN1C(=O)c1cccc(-c2cnco2)c1 [Compound 41, 3,5-dichloro-4-((S)-2-(3-(cyclopropylmethoxy)-4-(difluoromethoxy)phenyl)-2-((S)-3-(3-(oxazol-5-yl)benzoyl)thiazolidine-2-carbonyloxy)ethyl)pyridine 1-oxide] | 0.1 to 1 | –
COc1ccc(S(=O)(=O)N2CCSC2C(=O)O[C@@H](Cc2c(Cl)c[n+]([O-])cc2Cl)c2ccc(OC(F)F)c(OCC3CC3)c2)cc1C(=O)N(C)C (stereo partly drawn) [Compound 123, 3,5-dichloro-4-((2S)-2-(3-(cyclopropylmethoxy)-4-(difluoromethoxy)phenyl)-2-(3-(3-(dimethylcarbamoyl)-4-methoxyphenylsulfonyl)thiazolidine-2-carbonyloxy)ethyl)pyridine 1-oxide] | < 0.1 | –
O=C(O[C@@H](Cc1c(Cl)c[n+]([O-])cc1Cl)c1ccc(OC(F)F)c(OCC2CC2)c1)[C@@H]1SCCN1C(=O)c1ccc(CN2CCOCC2)cc1 [Compound 39, 3,5-dichloro-4-((S)-2-(3-(cyclopropylmethoxy)-4-(difluoromethoxy)phenyl)-2-((S)-3-(4-(morpholinomethyl)benzoyl)thiazolidine-2-carbonyloxy)ethyl)pyridine 1-oxide] | 0.1 to 1 | –
O=C(OCCN1CCOCC1)c1cccc(S(=O)(=O)N2CCSC2C(=O)O[C@@H](Cc2c(Cl)c[n+]([O-])cc2Cl)c2ccc(OC(F)F)c(OCC3CC3)c2)c1 (single isomer, unassigned) [Compound 133, 3,5-dichloro-4-((S)-2-(3-(cyclopropylmethoxy)-4-(difluoromethoxy)phenyl)-2-((S)-3-(3-((2-morpholinoethoxy)carbonyl)phenylsulfonyl)thiazolidine-2-carbonyloxy)ethyl)pyridine 1-oxide or 3,5-dichloro-4-((S)-2-(3-(cyclopropylmethoxy)-4-(difluoromethoxy)phenyl)-2-((R)-3-(3-((2-morpholinoethoxy)carbonyl)phenylsulfonyl)thiazolidine-2-carbonyloxy)ethyl)pyridine 1-oxide] | < 0.1 | –
CS(=O)(=O)N(CCN1CCOCC1)c1ccc(S(=O)(=O)N2CCSC2C(=O)O[C@@H](Cc2c(Cl)c[n+]([O-])cc2Cl)c2ccc(OC(F)F)c(OCC3CC3)c2)cc1 (stereo partly drawn) [Compound 143, 3,5-dichloro-4-((2S)-2-(3-(cyclopropylmethoxy)-4-(difluoromethoxy)phenyl)-2-(3-(4-(N-(2-morpholinoethyl)methylsulfonamido)phenylsulfonyl)thiazolidine-2-carbonyloxy)ethyl)pyridine 1-oxide formate] | 0.1 to 1 | –
Nc1ccc(S(=O)(=O)N2CCSC2C(=O)O[C@@H](Cc2c(Cl)c[n+]([O-])cc2Cl)c2ccc(OC(F)F)c(OCC3CC3)c2)cc1 (stereo partly drawn) [Compound 135, 4-((2S)-2-(3-(4-aminophenylsulfonyl)thiazolidine-2-carbonyloxy)-2-(3-(cyclopropylmethoxy)-4-(difluoromethoxy)phenyl)ethyl)-3,5-dichloropyridine 1-oxide] | 0.1 to 1 | –
O=C(O[C@@H](Cc1c(Cl)c[n+]([O-])cc1Cl)c1ccc(OC(F)F)c(OCC2CC2)c1)[C@@H]1CSCN1 [Compound 11] | – | 0.1 to 1
COc1ccc(C(=O)N2CCC[C@H]2C(=O)O[C@@H](Cc2c(Cl)c[n+]([O-])cc2Cl)c2ccc(OC(F)F)c(OCC3CC3)c2)cc1OS(C)(=O)=O [Compound 30, 3,5-dichloro-4-((S)-2-(3-(cyclopropylmethoxy)-4-(difluoromethoxy)phenyl)-2-((S)-1-(4-methoxy-3-(methylsulfonyloxy)benzoyl)pyrrolidine-2-carbonyloxy)ethyl)pyridine-1-oxide] | 1 to 10 | –
